The text below walks through data of PMC8058733, “A pain killer without analgesic tolerance designed by co-targeting PSD-95-nNOS interaction and α2-containning GABAARs” (Theranostics, 2021).

One data set concerns motor coordination. The data set can be described thus: Rotarod test, motor coordination. Format: in vivo. As to conditions: rats, 30 min after injection, ZL006-05 60 mg/kg, i.v., diazepam 0.5 mg/kg. (In general: The rotarod test checks motor coordination on a turning rod.)
In another data set the test system is α5β3γ2 GABAARs. The data set can be described thus: Potentiation of GABA-evoked currents, whole-cell patch-clamp in HEK293 cells transiently expressing recombinant GABAARs. Format: cell-based. (In general: The patch-clamp technique gives a direct electrical read-out from membranes.)
The subject of data set [1] is CFA-induced inflammatory pain. The data set can be described thus: CFA-induced inflammatory pain, paw withdrawal threshold. Format: in vivo. The following applies: mice, ZL006-05 60 mg/kg, i.g., given 24 h after CFA injection. How it is done:
For mice, the threshold for 50% PWT response to mechanical stimulus was quantified by assessing the paw withdrawal threshold using von Frey filaments (Touch-Test TM Sensory Evaluator, North coast Medical, Inc.). Mice were placed individually in a plastic cage (4.5 × 5 × 11 cm) with a wire mesh bottom which allowed full access to the paws. Behavioral accommodation was allowed for 20-30 min until cage exploration and major grooming activities ceased. Mechanical threshold was measured by applying a von Frey filament to the ventral surface of the right hind paw until a positive sign of pain behavior was elicited. The paradigm for assessing the threshold was as follows. Von Frey filaments with logarithmically incremental stiffness (0.02-2 g) were applied serially to the paw by the up-down method. […]
(A) Time course of SNL-induced thermal hyperalgesia after treating with ZL006-05 (60 mg/kg, i.g.) in mice. Paw withdrawal latency response to thermal stimulation was detected at 0, 1, 2, 4, 6, 8, 10, 12 and 24 h after drug administration. ( B) Areas under the curve of paw withdrawal latency 0-24 h after treatment calculated from ( A) (F (1,16) = 43.07, ***p < 0.001, two-tailed t-test, n = 9). […] (E) Areas under the curve of paw withdrawal latency 0-24 h after treatment calculated from (D) (F (1,18) = 71.73, ***p <0.001, two-tailed t-test, n = 10). […]

For data set [2], the system named is SNL-induced thermal hyperalgesia. The data set can be described thus: SNL-induced thermal hyperalgesia, paw withdrawal latency. Format: in vivo, mice. The following applies: mice, ZL006-05 60 mg/kg, i.g., 0-24 h. How it is done:
Neuropathic pain was induced by segmental spinal nerve ligation (SNL). Animals were anesthetized with isoflurane. After the loss of righting reflex, the animal was fixed in the prone position. The SNL model was prepared as described previously: a median skin incision with about 3-5 cm length in L4-S2 level of the mouse back was made, the muscles next to the vertebrae till the sixth lumbar protruding were separated, the L5/L6 joint protruding on the right side was exposed and excised, and L6 processus transversus was partially split so that the L4-L6 spinal nerves on the right side were exposed. L5 nerve was gently isolated and tightly ligated with 5-0 silk thread. […]
Paw withdrawal latency (PWL) response to thermal stimulus was assessed through the Hargreaves test. […] To record the PWL in response to thermal stimulus, each animal was measured five times with a 5-min interval, and the mean value was recorded after excluding maximal and minimum values. […]
(A) Time course of SNL-induced thermal hyperalgesia after treating with ZL006-05 (60 mg/kg, i.g.) in mice. Paw withdrawal latency response to thermal stimulation was detected at 0, 1, 2, 4, 6, 8, 10, 12 and 24 h after drug administration. ( B) Areas under the curve of paw withdrawal latency 0-24 h after treatment calculated from ( A) (F (1,16) = 43.07, ***p < 0.001, two-tailed t-test, n = 9). […]

The test system of the next data set is locomotor activity. The data set can be described thus: Open field test, locomotor activity. Format: in vivo. The following applies: mice, 1 h after injection, ZL006-05 60 mg/kg, i.v., diazepam 0.5 mg/kg. The protocol:
The locomotor activity was assessed by the open field test as described previously. The apparatus consisted of a large area composed of plastic, surrounded by walls that were 100 cm high. The floor was 50 × 50 cm for mice; the overall illumination was 25 lux. Each animal was gently placed in the center of the open field, and its behavior was videotaped. The distance the animals travelled was measured in a 5-min session using ANY-maze (Stoelting Co., IL, USA). After each trial, the plate was cleaned with 70% EtOH. No stressor was applied to the animals for at least 12 h before the test.

On to `CC1(C)C2CCC1(C)C(OC(=O)c1ccc(NCc3cc(Cl)cc(Cl)c3O)cc1O)C2` (centres unmarked) [ZL006-05], for which the “Motor coordination, time spent on the accelerating rotarod” value with motor coordination is reported as “had no effect”. Further, in the data set on α5β3γ2 GABAARs, the “Effect on α5GABAAR (in words)” value was “low efficacy on α3GABAAR and α5GABAAR”. In data set [1], the “Effect on CFA-induced inflammatory pain” value is on record as “reduced”. Further, the “Effect on SNL-induced thermal hyperalgesia” value in data set [2] was “reduced SNL-induced mechanical hyperalgesia and thermal pain”. The “Locomotor activity, distance travelled during 5 min” value in the data set on locomotor activity is on record as “had no effect”.
